Assay results from article PMC10254306, “Piplartine-Inspired 3,4,5-Trimethoxycinnamates: Trypanocidal, Mechanism of Action, and In Silico Evaluation” (Molecules, 2023).
“And” between values parts separate entries of the source, which are not always exact repeats. Equal values may be shown once.

Experiments:
[1] = system: epimastigote cells of T. cruzi; assay: Cytoplasmic reactive oxygen species, DCFH-DA flow cytometry; type: cell-based, Trypanosoma cruzi; settings: 157 and 314 µM, 24 h
Protocol: To elucidate the mechanism of action of 11, the increase in the concentration of ROS inside epimastigote cells of T. cruzi was evaluated through fluorescent techniques using 2′,7′–dichlorofluorescein diacetate (DCFH-DA). The results are illustrated in Figure 2 and Figure 3.
The DCFH-DA assay was used to evaluate the increase in ROS concentration in the cytoplasm of epimastigote cells treated with 11. Initially, 10^6 epimastigote cells/mL were added to 24-well plates in the presence of 11 (157 μM and 314 µM). After 3 h, 10 µL of a solution of DCFH-DA (20 µM in DMSO) was added. After 24 h, the cells were centrifuged (2800 RPM for 7 min), washed, and resuspended in 500 µL of phosphate buffered saline for flow cytometer analysis. Thus, the level of labeling in each group was analyzed by the geometric mean of the fluorescence intensity, and the results were expressed as relative fluorescence intensity according to the following formula (Equation (1)): (1) Relative fluorescence=mTest/mControl mTEST = geometric mean of the interest group; mCONTROL = geometric mean of the control group.

T. cruzi epimastigotes = assay: Mitochondrial transmembrane potential, rhodamine 123 flow cytometry; type: cell-based, Trypanosoma cruzi; settings: 157 and 314 µM, 24 h
Protocol: In addition, the mitochondrial damage exerted by 11 on the parasite was evaluated through the mitochondrial transmembrane potential assay using the fluorescent dye rhodamine 123 (Rho 123).
Initially, 11 (157 and 314 µM) and epimastigote forms (10^6 cells/mL) were added in 24-well plates. After 24 h, the cells were centrifuged and washed with phosphate-buffered saline. Subsequently, the cells were resuspended in 100 µL of phosphate-buffered saline, and 5 µL of Rho123 solution (10 µg/mL) was added. Thus, the samples were incubated in the dark for 30 min, washed, and resuspended with phosphate-buffered saline (500 µL/tube) for analysis by flow cytometry. Results were evaluated by relative fluorescence intensity, calculated as described above.

[2] = system: trypomastigote forms of T. cruzi, Y strain; assay: Trypanocidal activity on trypomastigote forms (viability by counting); type: cell-based, Trypanosoma cruzi
Protocol: (§1) Initially, the prepared esters were submitted to in vitro tests using the microdilution technique in 96-well plates to evaluate the trypanocidal activity against the epimastigote evolutionary form at different concentrations (200–3.12 μg/mL). Then, the compounds with the best activity were tested against the trypomastigote form of T. cruzi. In both assays, IC50 values were calculated; a compound is considered to have trypanocidal activity when IC50 <40 μM [21]. The results are expressed in Table 1.
Trypomastigote forms were obtained by infecting LLC-MK2 cells with the parasite; in this way, the cells were incubated for 24 h in T-25/75 cm^2 flasks at 37 °C in an atmosphere with 5% CO2 in DMEM medium supplemented with 2% FBS and 1% antibiotic. Subsequently, the trypomastigote forms were distributed in 96-well plates treated with piplartine analogues at different concentrations (200; 100; 50; 25; 12.5; 6.25; 3.12 μg/mL) and incubated at 37 °C for 24 h. The assessment of cell viability was performed by counting, and the IC50 was defined.

[3] = system: epimastigote forms of T. cruzi; assay: Scanning electron microscopy of morphological changes; type: cell-based, Trypanosoma cruzi; settings: 24 h of treatment, 157 µM
Protocol: In addition, scanning electron microscopy was used to analyze possible morphological alterations of epimastigote forms treated with compound 11. […] Similar results were obtained by treating epimastigote forms with pentyl p-coumarate.
To evaluate the changes induced by 11 in the ultrastructure of T. cruzi, the epimastigote forms were incubated with them for 24 h. After this period, the samples were centrifuged (5000 rpm; 10 min), the supernatant discarded, and the pellet resuspended in glutaraldehyde solution (2.5%) and incubated for 2 h. The fixed samples were again centrifuged and exposed to increasing concentrations of ethanol (30, 50, 70, 90, and 100%) for dehydration, followed by centrifugation (5000 rpm; 5 min). Finally, the cells were transferred to the surface of circular coverslips (15 mm) and dried in a CO2 oven. The coverslips were covered with a gold layer (20 nm thick) using the QT150 ES-Quorum Metallizer and analyzed in a Quanta 450 FEG-FEI scanning electron microscope to observe changes in the three-dimensional structure of the epimastigote forms of T. cruzi.

[4] = system: epimastigote forms of T. cruzi, Y strain; assay: Trypanocidal activity on epimastigote forms (growth inhibition, Neubauer chamber count); type: cell-based, Trypanosoma cruzi
Protocol: as §1
Initially, epimastigotes were cultured and distributed in 96-well plates at a density of 10^6 cells/mL in liver infusion tryptose medium supplemented with 10% fetal bovine serum (FBS) and 1% antibiotic. Then, the cells were treated with piplartine analogues at different concentrations and incubated at 28 °C for 24 h. To quantify the growth inhibition of the parasites, a Neubauer chamber was used, and the IC50 was defined.

[5] = system: epimastigote forms of T. cruzi; assay: Cell death profile, 7-AAD / annexin V-PE labeling; type: cell-based, Trypanosoma cruzi; settings: 157 and 314 µM, 24 h
Protocol: Epimastigote forms were used to analyze the cell death profile through labeling with AxPE and 7-AAD. Initially, the cells were divided into four cell populations: viable cells—with a low level of labeling (7AAD−/AxPE−); necrotic cells—labeled with 7-AAD (7AAD+/AxPE−); apoptotic cells—labeled with annexin V-PE (7AAD−/AxPE+); and cells in late apoptosis—doubly labeled (7AAD+/AxPE+).
The cells were treated with 11 for 24 h at concentrations of 157 and 314 µM.
The epimastigote forms of T. cruzi were cultivated at a density of 10^6 cells/mL in the presence of 11 (157 and 314 µM) for 24 h in a stove. Then, the cells were transferred to cytometry tubes, centrifuged at 4000 RPM for 5 min and washed twice with phosphate-buffered saline and binding buffer (pH 7.4; a compound of HEPES solution 10 mM; NaCl 140 mM; and CaCl2 2.5 mm). After the last centrifugation, the pellet was resuspended in 100 µL binding buffer, 5 µL 7-AAD (0.5 mg/mL), and 5 µL Ax/PE. The procedure was performed using a commercial kit (Annexin V PE Apoptosis Detection Kit I, BD Biosciences) and following the manufacturer’s guidelines. After 15 min of incubation in the dark, 400 µL of binding buffer was added to each tube, and the cells were analyzed on the FACSCalibur (BD Biosciences). For each tube, a minimum of 10^4 cells were analyzed to quantify the percentage of unlabeled cells and were either singly or double labeled with 7-AAD and Ax/PE. For this, an argon laser (488 nm) was used to excite the fluorochromes. Ax/PE-labeled cells were read by the FL2 detector (563 to 606 nm, yellow fluorescence), while 7-AAD-labeled cells were read at 615 to 645 nm wavelength (red fluorescence, FL3 detector).

LLC-MK2 cells = assay: In vitro cytotoxicity, MTT assay; type: cell-based, Rhesus monkey
Protocol: (§2) The compounds were considered selective for the parasite when SI ≥ 10 [21]. The results are expressed in Table 2.
(§3) For the cytotoxicity analysis, the (3-[4,5-dimethylthiazol-2-yl]-2,5 diphenyl tetrazolium bromide) (MTT) assay was used, in which the LLC-MK2 cells were cultured in Dulbecco’s Modified Eagle Medium (DMEM), then exposed to the piplartine analogues at different concentrations (25–200 μg/mL) and incubated for 24 h at 37 °C. Then MTT was added, and the cells were incubated for 4 h, after which 10% sodium dodecyl sulfate was added. […] To calculate the relative cell viability, cells treated only with sterile phosphate-buffered saline were used as a negative control. The experiments were conducted in triplicates.

[6] = In vitro cytotoxicity, MTT assay; type: cell-based, Rhesus monkey; settings: Rhesus monkey, LLC-MK2 renal epithelial cells; MTT, 24 h; read-out: LLCK-MK2 CC50
Protocol: as §2, §3

[7] = system: epimastigote form of T. cruzi; design: method as in PMID 31775321; settings: cited from earlier work
[8] = system: trypomastigote forms of T. cruzi; design: method as in PMID 31775321; settings: read-out: IC50 trypomastigote form; cited from earlier work
[9] = Trypanosoma cruzi, Y strain, 24 h

Row | SMILES | relative fluorescence DCFH-DA (cytoplasmic ROS) vs control [1] | accumulation of rhodamine 123 (mitochondrial transmembrane potential) vs control (T. cruzi epimastigotes) | IC50 [2, 9] | Selectivity Index (SI) Trypomastigote ([2]; ratio CC50 (LLC-MK2) / IC50 trypomastigote) | ultrastructural alterations by scanning electron microscopy [3] | IC50 [4, 9] | Selectivity Index (SI) Epimastigote ([4]; ratio CC50 (LLC-MK2) / IC50 epimastigote) | apoptotic cells (7AAD−/AxPE+) vs control [5] | cells in late apoptosis (7AAD+/AxPE+) vs control [5] | percentage of necrotic cells (7AAD+/AxPE−) vs control [5] | percentage of viable cells (7AAD−/AxPE−) vs control [5] | toxicity on LLC-MK2 host cells (in words) (LLC-MK2 cells; highest concentration tested (200 μg/mL)) | selectivity for the parasite (SI) (LLC-MK2 cells; parasite form not specified, conclusions) | CC50 at 24 h [6] | IC50 [7] [µM] | IC50 [8] [µM]
1 | COc1cc(/C=C/C(=O)OCc2ccco2)cc(OC)c1OC [Compound 11, (E)-furan-2-ylmethyl 3-(3,4,5-trimethoxyphenyl)acrylate] | increase in relative fluorescence | reduction in the accumulation of rhodamine | 15 µg/mL and 47 µM | >13.4 | pore formation and content leakage in the cytoplasm | 8.98 µg/mL and 28.2 µM | >22.2 | increase in apoptotic cells | increase in cells in late apoptosis | increase in the percentage of necrotic cells | reduction in the percentage of viable cells | did not show toxicity at the highest concentration tested | > 10 | > 200 µg/mL and > 628 µM | – | –
2 | CCCCCOC(=O)/C=C/c1ccc(O)cc1 [pentyl p-coumarate] | – | – | – | – | – | – | – | – | – | – | – | – | – | – | 5.16 | 61.6
